Laboratory results reported in patent US11891625B2, “Methods and compositions relating to hematopoietic stem cell expansion, enrichment, and maintenance” (CHILDREN'S MEDICAL CENTER CORPORATION, priority 2015, dated 2024).

Assays:
[1] = test system: murine HSCs (Lineage- Sca1+ ckit+ CD34-Flk2- CD150+ Fgd5 ZsGr+); experiment: Ex vivo culture of 20 murine HSCs for 7 or 14 days (imaging, FACS of phenotypic HSCs); format: cell-based; conditions: 7 or 14 days ex vivo, versus DMSO
Procedure: Images taken at 4× magnification.
FIGS. 9A-9B show the expansion of phenotypic murine HSCs for 14 days ex vivo. 20 murine HSCs (Lineage− Sca1+ ckit+ CD34−Flk2−CD150+Fgd5⋅ZsGr+) were cultured in the presence of DMSO, LSD1 inhibitor IV (LS), Tgfbeta inhibitor RepSox (RS), and the combination of both (C2) for 14 days. This method supports maintenance and expansion of ZsGr+ HSCs. […] FIG. 9B depicts the number of Lineage− Sca1+ ckit+ CD34−Flk2−CD150+Fgd5⋅ZsGr+ HSCs in each condition after 14 days of ex vivo culture.
An optimal combination of compounds that can be used to expand, enrich, and maintain the hematopoietic stem cell functional potential of hematopoietic stem cells includes a histone demethylase inhibitor and an inhibitor of the TGFβ receptor Alk5. […] Images taken at 4× magnification. […] FIGS. 9A-9B show the expansion of phenotypic HSCs for 14 days ex vivo. 20 murine HSCs (LSK34-Flk2-150+ZsGr+) were cultured in the presence of DMSO, LSD1 inhibitor IV (LS), Tgfbeta inhibitor RepSox (RS), and the combination of both (C2) for 14 days. This method supports maintenance and expansion of ZsGr+ HSCs. […] FIG. 9B: Number of ZsGr+ HSCs in each condition after 14 days of ex vivo culture. […] A) Bright-field and ZsGr images of 20 HSCs cultured for 4.5 days ex vivo in the presence of LSD1 inhibitor IV (LS), Tgfbeta inhibitor RepSox (RS), and the combination of both (C2). […]

human cord blood HSCs = experiment: In vitro colony forming assay of human cord blood HSCs after 14 days of ex vivo culture; format: cell-based; conditions: 14 day cord blood HSC cultures
Procedure: FIG. 30A depicts colony counts and composition adjusted to represent the entire well following 14 days of ex vivo culture (Note: only a fraction of the well was added to methocult for colony formation). FIG. 30B depicts the frequency of myeloid colony types from 14 day cord blood HSC cultures.

ZsGr+ murine HSCs = experiment: 4.5 day ex vivo culture of 20 Fgd5 ZsGr+ HSCs (frequency and number of ZsGr+ cells); format: cell-based; conditions: 4.5 days ex vivo culture
Text: FIG. 10A depicts bright-field and ZsGr images of 20 Fgd5⋅ZsGr+ HSCs cultured for 4.5 days ex vivo in the presence of LSD1 inhibitor IV (LS), Tgfbeta inhibitor RepSox (RS), and the combination of both (C2). […] FIG. 10C depicts the number of ZsGr+ and ZsGr− cells after 4.5 day cultures.
An optimal combination of compounds that can be used to expand, enrich, and maintain the hematopoietic stem cell functional potential of hematopoietic stem cells includes a histone demethylase inhibitor and an inhibitor of the TGFβ receptor Alk5. […] Images taken at 4× magnification. […] FIGS. 9A-9B show the expansion of phenotypic HSCs for 14 days ex vivo. 20 murine HSCs (LSK34-Flk2-150+ZsGr+) were cultured in the presence of DMSO, LSD1 inhibitor IV (LS), Tgfbeta inhibitor RepSox (RS), and the combination of both (C2) for 14 days. This method supports maintenance and expansion of ZsGr+ HSCs. […] FIG. 9B: Number of ZsGr+ HSCs in each condition after 14 days of ex vivo culture. […] A) Bright-field and ZsGr images of 20 HSCs cultured for 4.5 days ex vivo in the presence of LSD1 inhibitor IV (LS), Tgfbeta inhibitor RepSox (RS), and the combination of both (C2). FIG. 10B: Frequency of ZsGr+ cells remaining following 4.5 days of ex vivo culture. FIG. 10C: Number of ZsGr+ (Green) and ZsGr− (Black) cells within 4.5 day cultures (See also FIGS. 11A-13F and 28A-32B).

[2] = test system: murine HSCs (lineage-, ckit+, Sca1+, CD150+, CD48-, Fgd5ZsGr+); experiment: Culture of 40 murine HSCs for 12 days with compound cocktail plus RG108 and/or UNC0638, flow cytometry; format: cell-based; conditions: cytokines plus cocktail incl. trichostatin A, plus either or both RG108 and UNC0638
Procedure: 40 murine HSCs (lineage−, ckit+, Sca1+, CD150+, CD48−, Fgd5ZsGr+) were cultured for 12 days in the presence of cytokines (SCF, TPO, and IL12) and a cocktail of compounds (Lithium chloride, nicotinamide, N-acetylcysteine, ascorbic acid, A83-01, and SB203580, trichostatin A) plus either or both DNA methyltransferase inhibitor (RG108) and G9a inhibitor (UNC0638). Flow cytometry plots of Fgd5+Lineage− cells from the indicated culture conditions are shown.
A series of experiments was conducted in order to determine the relative contribution of compounds that modulate particular pathways to the expansion of hematopoietic stem cells. FIGS. 21A-21B show the contribution of each compound/pathway in ability to maintain and expand phenotypic HSCs during ex vivo culture. […] 200 cord blood HSCs were cultured for 12 days in serum free media supplemented with cytokines (SCF, TPO, FLT3L, IL3) in the presence of the indicated chemical combinations (Tgfbeta inhibitor (A, A83-01), HDAC inhibitor (TSA, Trichostatin A), and LSD1 inhibitor (TC, Tranylcypromine)) or additionally supplemented with p38 inhibitor (p38i, SB203580) and analyzed by flow cytometry. FIG. 35A: Immunophenotype of the cells post-culturing, and FIG. 35B: quantification of immunophenotypic HSCs (Lineage− CD34+ CD45RA−CD38− CD90+CD49F+) cultured in the indicated conditions.

[3] = test system: human mobilized peripheral blood CD34+ cells; experiment: Culture of 3000 CD34+ enriched mobilized peripheral blood cells for 7 days with chemicals or combinations, flow cytometry; format: cell-based; conditions: combinations with A83-01, Tranylcypromine, SB203580
Procedure: 3000 CD34+ enriched mobilized peripheral blood cells were cultured for 7 days in serum free media supplemented with cytokines (SCF, TPO, FLT3L, IL3) in the presence of the indicated chemical combinations (Tgfbeta inhibitor (A, A83-01), pan-HDAC inhibitor (TSA, Trichostatin A), LSD1 inhibitor (TC, Tranylcypromine), p38 inhibitor (p38i, SB203580), HDAC1/2 inhibitor (Rom, Romidepsin)) and analyzed by flow cytometry. FIG. 41A depicts the immunophenotype of the cells, FIG. 41B depicts the percentage of indicated populations, and FIG. 41C depicts quantification of immunophenotypic HSCs (Lineage− CD34+ CD45RA−CD38− CD90+CD49F+) 7 days post-culturing in the indicated conditions.
3000 CD34+ enriched mobilized peripheral blood cells were cultured for 7 days in serum free media supplemented with cytokines (SCF, TPO, FLT3L, IL3) in the presence of the indicated chemical combinations (Tgfbeta inhibitor (A, A83-01), pan-HDAC inhibitor (TSA, Trichostatin A), LSD1 inhibitor (TC, Tranylcypromine), p38 inhibitor (p38i, SB203580), HDAC1/2 inhibitor (Rom, Romidepsin)) and analyzed by flow cytometry. FIG. 41A: immunophenotype of the cells, FIG. 41B: percentage of indicated populations, and FIG. 41C: quantification of immunophenotypic HSCs (Lineage− CD34+ CD45RA− CD38− CD90+CD49F+) 7 days post-culturing in the indicated conditions.

p38 MAPK = conditions: as described in U.S. Pat. No. 6,602,896; cited from earlier work
[4] = test system: human CD34+ peripheral blood and cord blood hematopoietic stem cells; conditions: as described in the cited literature; cited from earlier work
[5] = test system: murine HSCs (lineage-, ckit+, Sca1+, CD150+, CD48-, Fgd5ZsGr+); experiment: Culture of 100 murine HSCs with compound cocktail plus VPA or TSA, day 7 flow cytometry; format: cell-based; conditions: cytokines plus cocktail (Lithium chloride, nicotinamide, N-acetylcysteine, ascorbic acid, A83-01, SB203580)
Procedure: 100 murine HSCs (lineage−, ckit+, Sca1+, CD150+, CD48−, Fgd5ZsGr+) were cultured in the presence of cytokines only (SCF, TPO, and IL12) in the absence of compounds (Standard), or additionally supplemented with a cocktail of compounds (Lithium chloride, nicotinamide, N-acetylcysteine, ascorbic acid, A83-01, and SB203580) plus either valproic acid (VPA) or trichostatin A (TSA), which are structurally distinct HDAC inhibitors. FIG. 22A depicts day 7 flow cytometric analysis and FIG. 22B depicts the proportion of Fgd5−ZsGreen+ Sca1+ cells for each replicate.
In addition to inhibitors of histone demethylation and TGFβ signaling, histone deacetylase inhibitors also promote the expansion, enrichment, and maintenance of hematopoietic stem cells ex vivo. […] 3000 CD34+ enriched mobilized peripheral blood cells were cultured for 7 days in serum free media supplemented with cytokines (SCF, TPO, FLT3L, IL3) in the presence of the indicated chemical combinations (Tgfbeta inhibitor (A, A83-01), pan-HDAC inhibitor (TSA, Trichostatin A), LSD1 inhibitor (TC, Tranylcypromine), p38 inhibitor (p38i, SB203580), HDAC1/2 inhibitor (Rom, Romidepsin)) and analyzed by flow cytometry. […]

For CN1CCN(C(=O)CN[C@@H]2C[C@H]2c2ccc(OCc3ccccc3)cc2)CC1 [LS], the “appearance of cultures (images at 4x magnification)” value [1] was “more homogenous and less differentiated”, the “frequency of GEMM colonies” value (human cord blood HSCs) was “elevated frequency of most primitive GEMM colonies” and the “maintenance and expansion of ZsGr+ HSCs” value (ZsGr+ murine HSCs) was “supports maintenance and expansion of ZsGr+ murine HSCs”.

In the case of O=C(O)[C@H](Cc1c[nH]c2ccccc12)N1C(=O)c2ccccc2C1=O [RG108, N-Phthalyl-L-tryptophan], the “heterogeneity of Fgd5 ZsGr+ cells with respect to CD48 and Sca1 expression” value [2] is reported as “reduces heterogeneity”.

With Cc1cccc(-c2n[nH]cc2-c2ccc3ncccc3n2)n1 [RS] the “frequency of GEMM colonies” value (human cord blood HSCs) was “elevated frequency of most primitive GEMM colonies” and the “maintenance and expansion of ZsGr+ HSCs” value (ZsGr+ murine HSCs) was “supports maintenance and expansion of ZsGr+ murine HSCs”.

In the case of C/C=C1\NC(=O)[C@H]2CSSCC/C=C/[C@H](CC(=O)N[C@H](C(C)C)C(=O)N2)OC(=O)[C@H](C(C)C)NC1=O [Romidepsin], the “replacement of pan HDAC inhibitor in chemical combination for maintenance/expansion of human HSCs” value [3] is reported as “can replace the pan HDAC inhibitor Trichostatin A for efficient ex vivo maintenance/expansion of human HSCs”.

In the case of Oc1ccc(-c2nc(-c3ccc(F)cc3)c(-c3ccncc3)[nH]2)cc1 [SB202190, 4(4-Fluorophenyl)-2-(4-hydroxyphenyl)-5-(4-pyridyl) 1H-imidazole], the “selectivity among p38 MAPK isoforms” value (p38 MAPK) is listed as “selectively antagonize p38 MAPK α- and β-isoforms without disrupting the enzymatic activity of the γ- or δ-isoforms”.

For CC(C)n1cnc2c(NCCc3ccc(O)cc3)nc(-c3csc4ccccc34)nc21 [SR1], the “expansion and self-renewal of human CD34+ hematopoietic stem cells” value [4] is given as “promotes expansion and self-renewal of human CD34+ peripheral blood and cord blood hematopoietic stem cells”.

For COc1cc2c(NC3CCN(C(C)C)CC3)nc(C3CCCCC3)nc2cc1OCCCN1CCCC1 [UNC0638], the “heterogeneity of Fgd5 ZsGr+ cells with respect to CD48 and Sca1 expression” value [2] was “reduces heterogeneity”.

For CC(/C=C/C(=O)NO)=C\[C@@H](C)C(=O)c1ccc(N(C)C)cc1 [trichostatin A], the “maintenance of immunophenotypic HSCs by structurally distinct HDAC inhibitors” value [5] was “function equivalently to maintain immunophenotypic HSCs”.

In the case of CCCC(CCC)C(=O)O [valproic acid], the “maintenance of immunophenotypic HSCs by structurally distinct HDAC inhibitors” value [5] is reported as “function equivalently to maintain immunophenotypic HSCs”.
